The experiment concerns Cdkn2a^Ink4a, Ccl2, Serpine1 mRNA. Nature of the experiment: Bleomycin-induced lung injury model, qRT-PCR of senescence and SASP markers in CD45-depleted lung cells. Format: in vivo, mouse. To be noted: bleomycin-injured mice, GalCer day 10, harvest day 14; FIG. 4B. The protocol:
MATERIALS AND METHODS. Mouse husbandry. All procedures involving mice were performed according to the IACUC standards following ethics approval by the animal committee at the University of California, San Francisco. Male C57BL6/J on chow or HFD fed mice. HFD mice were fed a high-fat diet (60% kcal from fat) from 6 weeks until 22 weeks of age. All experiments on HFD mice were performed at 22-24 weeks total age (16-18 weeks on HFD). Age-matched male C57BL6/J mice on standard rodent chow diet were used as controls. For the lung injury model, 10-week-old male C57BL/6J mice were used. The animals were divided into three groups: the control group, the injured group, and the α-GalCer treated group. The animals in the control group received vehicle only (i.p.) on day 10. The injured group animals received bleomycin (3 U/kg) via the intratracheal route at the start of the experiment (day 0). The animals in the α-GalCer treated groups received bleomycin (3 U/kg) on day 0, and i.p. injection of α-GalCer (2 μg/mouse) on day 10. […] RNA extraction and Quantitative reverse transcriptase PCR.RNA was extracted with RNA extraction reagent using the commercial total RNA micro-prep kit according to the product instructions. Total RNA was quantified by nanovolume photospectrometer and fluorometer. […] Quantification was performed using with the delta-delta CT method, using Cyclophilin A (Ppia) as a housekeeping gene.
For orientation: In qPCR the cycle at which signal appears reflects the starting amount.

Experimental findings from US20230172984A1, “CLEARANCE OF SENESCENT CELLS BY ACTIVATION OF iNKT CELLS” (THE REGENTS OF THE UNIVERSITY OF CALIFORNIA, priority 2020, published 2023) are described below.

SMILES strings stand for the structures.

Turning to `CCCCCCCCCCCCCCCCCCCCCCCCCC(=O)N[C@@H](CO[C@H]1O[C@H](CO)[C@H](O)[C@H](O)[C@H]1O)[C@H](O)[C@H](O)CCCCCCCCCCCCCC` [GalCer, alpha-Galactosylceramide], the “mRNA levels of senescence (Cdkn2a^Ink4a) and SASP (Ccl2, Serpine1) markers in CD45^− lung cells” value is on record as “reduced mRNA levels of these marker genes”.
